Structures can show the parent of a compound that is named as a salt.
Assays:
[1] = pH value of the product (c=1% H2O); format: physicochemical
Description: According to one embodiment, the solution (having a pH value of about 4) was further stirred 20 minutes. According to one embodiment, the solution was concentrated on an evaporator under a vacuum at 50° C. According to one embodiment, the residue was repeatedly (3 times) taken up using anhydrous ethanol under a vacuum to dry the solution as much as possible.

[2] = Odor of the dried product (sign of decomposition / acid smell); format: physicochemical; details: dried solid product
Description: According to one embodiment, 96.7 grams (0.6 mole) of L-carnitine inner salt (C7H15NO3, molecular weight 161.20) was added to a 50% aqueous solution (having a pH value <1) of 66.0 grams (0.1 mole) phytic acid and stirred at room temperature resulting in an exothermic reaction. […] According to one embodiment, the solution (having a pH value of about 4) was further stirred 20 minutes. […] According to one embodiment, the residue is further dried in a vacuum oven at 50° C. to obtain 166.2 grams of white solid powder with an almost quantitative yield (i.e., the white solid powder contains 2% H2O).
According to one embodiment, 122.09 grams (0.6 mole) of acetyl L-carnitine inner salt (C9H17NO4, molecular weight 203.24) was added to a 50% aqueous solution (having a pH value <1) of 66.0 grams (0.1 mole) phytic acid and stirred at room temperature resulting in an exothermic reaction. […] According to one embodiment, the residue is further dried in a vacuum oven at 50° C. to obtain 192.7 grams of white solid powder with an almost quantitative yield (i.e., the white solid powder contains 2% H2O). […]

[3] = cited from earlier work
[4] = post-administration, independent of route; cited from earlier work
[5] = tested on: human mammary cancer cell line; details: incubated with a human mammary cancer cell line; cited from earlier work
[6] = tested on: mice; test: Single dose oral acute toxicity study (LD50); format: in vivo
Description: The single dose oral acute toxicity of L-carnitine phytate (in a 6:1 mole ratio) was evaluated in mice. Five dosages (25, 20, 15, 10, and 5 g/Kg) were orally administrated to five groups of mice in which each group had five male and five female mice. After dosing, the five groups of mice were observed and daily records (for 14 days) were made of their general conditions, toxic response, and deaths. All of the dead mice were necropsied, in which each of the body's thorace and abdomen were opened, and each heart, liver, spleen, lung, kidney, and intestine were examined and recorded.

CC(=O)O[C@H](CC(=O)O)C[N+](C)(C)C [Example Embodiment 3, Acetyl L-Carnitine Phytate (in a 6:1 mole ratio)]
pH value [1]: 4 | odor [2]: odorless

CC(C)C(=O)O[C@H](CC(=O)O)C[N+](C)(C)C [Example Embodiment 6, Isobutyryl L-Carnitine Phytate (in a 6:1 mole ratio)]
pH value [1]: 4

C[N+](C)(C)C[C@H](O)CC(=O)[O-] [L-carnitine's inner salt, L-carnitine inner salt]
pKa value [3]: 3.8

O=P(O)(O)O[C@H]1[C@H](OP(=O)(O)O)[C@@H](OP(=O)(O)O)[C@H](OP(=O)(O)O)[C@@H](OP(=O)(O)O)[C@H]1OP(=O)(O)O [phytic acid, Phytic acid]
pKa of the remaining three very weakly acidic sites [3]: greater than 10 | pKa of the six strongly acidic proton dissociation sites ([3]; first dissociation proton of each phosphate group): ~1.5 | time to reach targeted tumor tissue [4]: as early as one hour post-administration | time of first detection of IP6 in cells [5]: as early as one minute post-incubation

Butyryl L-Carnitine Phytate (in a 6:1 mole ratio) [Example Embodiment 5]
pH value [1]: 4

L-Carnitine Phytate (in a 6:1 mole ratio) [Example Embodiment 2]
necropsy findings in hearts, livers, spleens, lungs, kidneys and intestines ([6]; single oral dose 5-25 g/Kg, dead mice necropsied): not any obvious abnormalities observed | acute oral LD50 ([6]; single oral dose, observed for 14 days): 14860 mg/kg

Propinoyl L-Carnitine Phytate (in a 6:1 mole ratio) [Example Embodiment 4]
pH value [1]: 4 | odor [2]: odorless
